The test system of series [1] is P. falciparum 3D7 (CQ-susceptible strain). Nature of the series: Antiplasmodial activity, asexual blood stages, HRP2 ELISA-based assay, 3D7 strain. It counts as cell-based, Plasmodium falciparum. The conditions noted are these: for IC50: CQ-susceptible 3D7 strain, 72 h drug incubation, mean of five to seven experiments, read-out: P. falciparum IC50 (±SEM), 3D7. The source says: We determined the half-maximal inhibitory concentration (IC50) of the complexes against asexual blood stages of P. falciparum using CQ-susceptible and CQ-resistant strains (Table 2). […]. Two strains were selected for the tests: the CQ-susceptible 3D7 strain (isolated in West Africa; obtained from MR4, VA, USA), and the CQ-resistant W2 strain (isolated in Indochina; obtained from MR4, VA, USA). Both were maintained in culture in RPMI 1640 (Invitrogen, Paisley, UK), supplemented with 10% human serum (Abcys S.A. Paris, France), and buffered with 25 mM HEPES and 25 mM NaHCO3. Parasites were grown in A-positive human blood (Etablissement Français du Sang, Marseille, France) in controlled atmospheric conditions that consisted of 10% O2, 5% CO2, and 85% N2 at 37 °C with 95% humidity. […]
For in vitro isotopic microtests, 25 μL/well of antimalarial drug and 200 μL/well of parasitized red blood cell suspension (final parasitemia 0.5%, final hematocrit 1.5%) were distributed into 96-well plates. The plates were incubated for 72 h at 37 °C in 85% N2, 10% O2, 5% CO2. After freezing and then thawing, the hemolyzed cultures were homogenized by vortexing the plates. The drug susceptibility assay was performed using the HRP2 ELISA-based assay of the Malaria Ag Celisa kit (ref KM2159, Cellabs PTY LDT, Brookvale, Australia), as described previously.[72] […] […]. IC50 are expressed as means of at least 5 to 7 independent experiments.

Series [2] is described as follows: Interaction with ferriprotoporphyrin IX, spectroscopic titration of Soret band at 402 nm. It counts as binding. The conditions noted are these: for log K (association constant of drug binding to hemin): pH 7.4, 40% aqueous DMSO, 1:1 complexation model, mean and SEM of three experiments; for hypochromic effect on the Soret band of hemin: until saturation point, 402 nm. On the procedure: The association constants (Log K) of the compounds with hemin were determined at pH 7.4 using a 1:1 complexation model with the equation proposed by Egan et al.[52] for the nonlinear least-squares fitting (Figure 2, Table 2).
Following a procedure described in the literature,[52] the association constant (Log K) of the drugs with ferriprotoporphyrin IX was determined in 40% aqueous DMSO. A stock solution of hemin chloride was prepared by adding 3.5 mg hemin to 10 mL DMSO and adjusted to pH 7.5. A working solution of hemin in 40% DMSO was further prepared by mixing 140 μL hemin stock solution, 5 mL distilled water, 3.86 mL DMSO, and 1 mL 0.2 M Tris (tris(hydroxymethyl)aminomethane) buffer. Aliquots of compounds were added to this working hemin solution. Blank solutions containing only hemin or compounds were prepared to subtract the absorbance of the compounds. […] Binding affinity was determined using the equation A = (A0 + A∞K[C])/(1 + K[C]) for a 1:1 complexation model using nonlinear least-squares fitting, where A0 is the absorbance of Fe(III)PPIX, A∞ is the absorbance of the compound–hemin adduct at saturation, and K is the association constant. Three independent experiments were performed.

Series [3] is described as follows: Chemical stability in solution (UV–vis, NMR, molar conductivity). It is filed as physicochemical. The conditions noted are these: for ΛM (DMSO) Day 1 / ΛM (DMSO) Day 2 / ΛM (DMSO) Day 3 / ΛM (DMSO) Day 7 / ΛM (DMSO) Day 15: molar conductivity in DMSO, stability; for stability by UV–vis in pure DMSO: primarily within 0–24 h. On the procedure:
Three distinct methodologies were used to investigate the in-solution stability of metal–ATV complexes 1–3, namely ultraviolet–visible (UV–vis) spectra, NMR, and molar conductivity. All experiments were performed in dimethyl sulfoxide (DMSO) and monitored for at least 72 h, a time frame which coincides with antimalarial drug treatment.
Furthermore, no significant changes in the ^1H NMR and ^31P{^1H} NMR spectra of the complexes were observed up to 72 h in comparison to freshly dissolved solution, denoted as time 0 h (Figures S20–S25). However, for the ^31P{^1H} NMR spectrum of the complex 3, it is observed an increasing intensity of the singlet at 28 ppm that can be attributed to oxidized PPh3, which may be leaving the coordination sphere, but this is relative low when compared with the signal of the complex at −1.76 ppm. Both molar conductivity and NMR data therefore indicate that the metal complexes remained intact in this condition. The observed […] in DMSO is likely related to the fact that the metal atoms are bonded to phosphine ligands, hindering any oxidation of the metal center.
As for the UV–vis analyses, these were used to assess the stability of metal–ATV complexes 1–3 in a solution of pure DMSO or DMSO mixed with aqueous media. To this end, three different conditions were employed in parallel experiments. […] The small change in absorbance observed can be attributed to dynamic equilibrium processes or structural reorganization of the metal complexes. These processes may include partial dissociation of ligands, reorientation of solvent molecules around the metal ion, or even conformational changes of the metal complexes. […] Highlighting that these conditions are the most similar to those employed in the determination of biological activity. Based on this, we concluded that in mixed aqueous/organic media, ATV and complexes 1–3 may undergo slight structural modifications, but no significant ligand exchange reactions occur, as previously observed in the stability studies by NMR.
For the stability studies by NMR spectroscopy, fresh solutions of the complexes in DMSO-d6 with concentrations of 22–25 mM were used. In the studies by UV–vis spectroscopy, three experimental conditions were employed: a) only DMSO, b) 90% DMSO/10% H2O, and c) 90% DMSO/10% RPMI 1640 (Roswell Park Memorial Institute) medium, with concentrations of the complexes 1-3 in 0.28–0.35 μM, 0.25–0.28 μM and 0.32–0.38 μM, respectively. Fresh solutions of the complexes dissolved in DMSO were always used and subsequently diluted with water or RPMI medium.

For another series, the system named is J774 cells. As to the kind of experiment: Cytotoxicity in mammalian cells (CellTiter-Glo), J774. It counts as cell-based. Particulars: J774 murine macrophage line; 72 h drug incubation; mean of three experiments; read-out: mammalian cells CC50 (±SEM), J774. On the procedure:
(§1) Cell lines J774 and HepG2 were incubated with the drug for 72 h, the same time frame as employed to determine antimalarial activity. Cytotoxicity was evaluated in parallel with ATV as a representative parental drug, while doxorubicin was used as a standard cytotoxic drug. These experiments were also used to estimate the in vitro selectivity index (Table 2).
(§2) Doxorubicin chloridrate (Eurofarma, São Paulo, Brazil) was used as a positive control, while untreated cells were employed as negative controls. Bioluminescence readings were performed using a Filtermax F5Multi-Mode instrument (Molecular Devices, Sunnyvale, CA) using the CellTiter-Glo kit (Promega Corporation, Madison, USA). Three independent experiments were performed and CC50 values were calculated.
(In general: In ATP-based viability assays light output follows the ATP content of the culture.)

The next series relates to HepG2 cells. Nature of the series: Cytotoxicity in mammalian cells (CellTiter-Glo), HepG2. It counts as cell-based. The conditions noted are these: HepG2 human hepatocellular carcinoma line; 72 h drug incubation; mean of three experiments; read-out: mammalian cells CC50 (±SEM), HepG2. On the procedure: as §1, §2

Where two headings read alike, the source gives them in different places.

On to `O=C1C(O)=C([C@H]2CC[C@H](c3ccc(Cl)cc3)CC2)C(=O)c2ccccc21` [ATV, atovaquone], for which, in series [1] (CC50 (J774)/IC50(3D7)), the “Selectivity index (S.I.)” value was 8250. The IC50 in series [1] (Plasmodium falciparum) came to 0.0024 ± 0.0012 µM. Further, in series [2], the “log K (association constant of drug binding to hemin)” value (“log K” for short) was found to be 3.64 ± 0.10 and the “hypochromic effect on the Soret band of hemin” value (“hypochromic effect” for short) is listed as 42%. For the same compound, in series [3], the “ΛM (DMSO) Day 1” value amounted to 0.93 Ohm-1cm2mol-1, the “ΛM (DMSO) Day 2” value is recorded as 1.07 Ohm-1cm2mol-1, the “ΛM (DMSO) Day 3” value is 1.23 Ohm-1cm2mol-1 and the “ΛM (DMSO) Day 7” value worked out at 1.68 Ohm-1cm2mol-1. The “ΛM (DMSO) Day 15” value in series [3] worked out at 2.04 Ohm-1cm2mol-1.
Take `O=C1C([O][Cu]([PH](c2ccccc2)(c2ccccc2)c2ccccc2)[PH](c2ccccc2)(c2ccccc2)c2ccccc2)=C([C@H]2CC[C@H](c3ccc(Cl)cc3)CC2)C(=O)c2ccccc21` [Complex 3, [Cu(ATV)(PPh3)2]]: in the series on J774 cells, the CC50 is 36.1 ± 3.9 µM. Besides, the CC50 in the series with HepG2 cells was 44.3 ± 7.7 µM. Moreover, the 50% inhibitory concentration (IC50) in series [1] is 0.0307 ± 0.0107 µM. Also, in series [2], the “log K” value is 3.97 ± 0.01 and the “hypochromic effect” value is on record as 38%. Moreover, the “stability by UV–vis in 90% DMSO mixed with 10% water” value in series [3] (90% DMSO/10% H2O) was “major change in the spectra”. Moreover, in series [3], the “ΛM (DMSO) Day 1” value was 3.71 Ohm-1cm2mol-1, the “ΛM (DMSO) Day 2” value is recorded as 3.80 Ohm-1cm2mol-1, the “ΛM (DMSO) Day 3” value is given as 3.47 Ohm-1cm2mol-1 and the “ΛM (DMSO) Day 7” value was determined as 3.14 Ohm-1cm2mol-1. In addition, in series [3], the “ΛM (DMSO) Day 15” value is reported as 3.05 Ohm-1cm2mol-1 and the “stability by UV–vis in pure DMSO” value is recorded as “modifications were observed in the electronic spectra”.
With [Ag(ATV)(PPh3)2] [Complex 1], the CC50 with J774 cells came to 9.5 ± 2.2 µM. For the same compound, the half-maximal cytotoxic concentration (CC50) in the series on HepG2 cells worked out at 14.6 ± 0.9 µM. Besides, the IC50 in series [1] was determined as 0.0305 ± 0.0097 µM. In addition, in series [2], the “log K” value is listed as 4.33 ± 0.05 and the “hypochromic effect” value is reported as 37%. In series [3], the “ΛM (DMSO) Day 1” value is 12.81 Ohm-1cm2mol-1, the “ΛM (DMSO) Day 2” value stood at 13.90 Ohm-1cm2mol-1, the “ΛM (DMSO) Day 3” value turned out to be 16.14 Ohm-1cm2mol-1 and the “ΛM (DMSO) Day 7” value came out at 13.70 Ohm-1cm2mol-1. Besides, the “ΛM (DMSO) Day 15” value in series [3] is on record as 12.17 Ohm-1cm2mol-1.
Turning to [Au(ATV)(PPh3)]·2H2O [Complex 2], the CC50 with J774 cells was 10.8 ± 3.4 µM. Besides, the cytotoxic concentration (CC50) in the series with HepG2 cells was determined as 8.9 ± 2.7 µM. Besides, in series [1], the IC50 amounted to 0.0081 ± 0.0027 µM. In addition, in series [2], the “log K” value is on record as 4.46 ± 0.01 and the “hypochromic effect” value was determined as 51%. In addition, in series [3], the “ΛM (DMSO) Day 1” value came to 12.69 Ohm-1cm2mol-1, the “ΛM (DMSO) Day 2” value was found to be 14.51 Ohm-1cm2mol-1, the “ΛM (DMSO) Day 3” value is on record as 12.53 Ohm-1cm2mol-1 and the “ΛM (DMSO) Day 7” value worked out at 12.41 Ohm-1cm2mol-1. In series [3], the “ΛM (DMSO) Day 15” value was found to be 11.84 Ohm-1cm2mol-1 and the “stability by UV–vis in pure DMSO” value is listed as “modifications were observed in the electronic spectra”.

As a reminder, the IC50 is the concentration needed to halve the response being measured. What is called CC50 is the concentration at which the toxic effect on the cells reaches its halfway point.

These data come from PMC11409218, “Metal(triphenylphosphine)-atovaquone Complexes: Synthesis, Antimalarial Activity, and Suppression of Heme Detoxification” (Inorganic Chemistry, 2024).
